Reference: patent publication US8952024B2, “Herbicidal pyrimidone derivatives” (E I du Pont de Nemours and Company, priority 2009, dated 2015)

What was measured:
Format in all cases: in vivo
[1] = test system: barnyardgrass (Echinochloa crus-galli); experiment: Test A pre-/postemergence plant response
Text: (§1) Seeds of barnyardgrass (Echinochloa crus-galli), large crabgrass (Digitaria sanguinalis), giant foxtail (Setaria faberii), morningglory (Ipomoea spp.), pigweed (Amaranthus retroflexus), velvetleaf (Abutilon theophrasti), wheat (Triticum aestivum) and corn (Zea mays) were planted into a blend of loam soil and sand and treated preemergence with a directed soil spray using test chemicals formulated in a non-phytotoxic solvent mixture which included a surfactant. At the same time these species were also treated with postemergence applications of test compounds formulated in the same manner.
(§2) Plants ranged in height from two to ten cm and were in the one- to two-leaf stage for the postemergence treatment. Treated plants and untreated controls were maintained in a greenhouse for approximately ten days, after which time all treated plants were compared to untreated controls and visually evaluated for injury. Plant response ratings, summarized in Table A, are based on a 0 to 100 scale where 0 is no effect and 100 is complete control. A dash (-) response means no test result.

corn (Zea mays) = experiment: Test A pre-/postemergence plant response
Text: as §1, §2

[2] = test system: giant foxtail (Setaria faberii); experiment: Test A pre-/postemergence plant response
Text: as §1, §2

[3] = test system: large crabgrass (Digitaria sanguinalis); experiment: Test A pre-/postemergence plant response
Text: as §1, §2

[4] = test system: morningglory (Ipomoea spp.); experiment: Test A pre-/postemergence plant response
Text: as §1, §2

[5] = test system: pigweed (Amaranthus retroflexus); experiment: Test A pre-/postemergence plant response
Text: as §1, §2

[6] = test system: velvetleaf (Abutilon theophrasti); experiment: Test A pre-/postemergence plant response
Text: as §1, §2

[7] = test system: wheat (Triticum aestivum); experiment: Test A pre-/postemergence plant response
Text: as §1, §2

[8] = test system: barnyardgrass (Echinochloa crus-galli); experiment: Test B flooded paddy test; conditions: for Plant response rating, Flood, Barnyardgrass: 250 g ai/ha, flooded paddy test, visual rating on 0 to 100 scale (0 no effect, 100 complete control) after 13 to 15 days; for Plant response rating, Barnyardgrass: Flood (flooded paddy test), 13 to 15 days; for Barnyardgrass plant response rating: Flood, 31 g ai/ha, scale 0 to 100 (0 no effect, 100 complete control)
Method in brief: (§3)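 Each compound is added to standing floodwater (3 cm above soil, maintained) in pots of 2-leaf-stage plants; greenhouse exposure lasts 13–15 d before visual comparison with controls on a 0–100 control scale.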

[9] = test system: ducksalad (Heteranthera limosa); experiment: Test B flooded paddy test; conditions: for Plant response rating, Flood, Ducksalad: 250 g ai/ha, flooded paddy test, visual rating on 0 to 100 scale (0 no effect, 100 complete control) after 13 to 15 days; for Plant response rating, Ducksalad: Flood (flooded paddy test), 13 to 15 days; for Ducksalad plant response rating: Flood, 31 g ai/ha, scale 0 to 100 (0 no effect, 100 complete control)
Method in brief: as §3

rice (Oryza sativa) = experiment: Test B flooded paddy test; conditions: for Plant response rating, Flood, Rice: 250 g ai/ha, flooded paddy test, visual rating on 0 to 100 scale (0 no effect, 100 complete control) after 13 to 15 days; for Plant response rating, Rice: Flood (flooded paddy test), 13 to 15 days; for Rice plant response rating: Flood, 31 g ai/ha, scale 0 to 100 (0 no effect, 100 complete control)
Method in brief: as §3

[10] = test system: umbrella sedge (Cyperus difformis); experiment: Test B flooded paddy test; conditions: for Plant response rating, Flood, Sedge, Umbrella: 250 g ai/ha, flooded paddy test, visual rating on 0 to 100 scale (0 no effect, 100 complete control) after 13 to 15 days; for Plant response rating, Sedge, Umbrella: Flood (flooded paddy test), 13 to 15 days; for Sedge, Umbrella plant response rating: Flood, 31 g ai/ha, scale 0 to 100 (0 no effect, 100 complete control)
Method in brief: as §3

[11] = Postemergence, 125 g ai/ha, 0 to 100 scale where 0 is no effect and 100 is complete control
[12] = Postemergence, 500 g ai/ha, 0 to 100 scale, 0 = no effect, 100 = complete control, approx. ten days
[13] = Preemergence, 125 g ai/ha, 0 to 100 scale, 0 = no effect, 100 = complete control
[14] = Preemergence, 500 g ai/ha, visual injury, 0 to 100 scale (0 no effect, 100 complete control), approx. ten days
[15] = 62 g ai/ha, scale of 0 to 100 where 0 is no effect and 100 is complete control
[16] = 125 g ai/ha, scale 0 to 100, 0 is no effect, 100 is complete control
[17] = Postemergence, 500 g ai/ha, visual injury, 0 to 100 scale (0 no effect, 100 complete control), approx. ten days
[18] = Preemergence, 125 g ai/ha, 0 to 100 scale where 0 is no effect and 100 is complete control, approximately ten days
[19] = Preemergence, 500 g ai/ha, 0 to 100 scale, 0 = no effect, 100 = complete control
[20] = Postemergence, 125 g ai/ha, visual injury, 0 to 100 scale (0 no effect, 100 complete control), approx. ten days

CCCc1ncc(C(=O)C2=C(O)CCCC2=O)c(=O)n1Cc1cccc(OC(F)(F)F)c1 [Compound 105]
10: Plant response rating, Corn (corn (Zea mays); [12]) | Plant response rating, Morningglory [4, 11]
0: Plant response rating, Barnyardgrass [1, 13] | Plant response rating, Barnyardgrass [1, 14] | Plant response rating, Corn (corn (Zea mays); [11]) | Plant response rating, Corn (corn (Zea mays); [13]) | Plant response rating, Corn (corn (Zea mays); [14]) | Plant response rating, Foxtail, Giant [2, 11] | Plant response rating, Morningglory [4, 13] | Plant response rating, Velvetleaf [6, 13] | Plant response rating, Wheat [7, 11] | Plant response rating, Wheat [7, 12] | Plant response rating, Wheat [7, 13] | Plant response rating, Wheat [7, 14] | Plant response rating, Flood, Barnyardgrass [8] | Plant response rating, Barnyardgrass [8, 15] | Plant response rating, Barnyardgrass [8, 16] | Barnyardgrass plant response rating [8] | Plant response rating, Flood, Ducksalad [9] | Plant response rating, Ducksalad [9, 15] | Plant response rating, Ducksalad [9, 16] | Ducksalad plant response rating [9] | Plant response rating, Flood, Rice (rice (Oryza sativa)) | Plant response rating, Rice (rice (Oryza sativa); [15]) | Plant response rating, Rice (rice (Oryza sativa); [16]) | Rice plant response rating (rice (Oryza sativa)) | Plant response rating, Flood, Sedge, Umbrella [10] | Plant response rating, Sedge, Umbrella [10, 15] | Plant response rating, Sedge, Umbrella [10, 16] | Sedge, Umbrella plant response rating [10]
80: Plant response rating, Morningglory [4, 12] | Plant response rating, Pigweed [5, 13]
50: Plant response rating, Barnyardgrass [1, 12] | Plant response rating, Foxtail, Giant [2, 14] | Plant response rating, Crabgrass, Large [3, 14]
20: Plant response rating, Barnyardgrass [1, 11] | Plant response rating, Foxtail, Giant [2, 12] | Plant response rating, Crabgrass, Large [3, 11]
30: Plant response rating, Foxtail, Giant [2, 13] | Plant response rating, Crabgrass, Large [3, 13]
100: Plant response rating, Pigweed [5, 12] | Plant response rating, Velvetleaf [6, 11] | Plant response rating, Velvetleaf [6, 12]
90: Plant response rating, Pigweed [5, 11] | Plant response rating, Pigweed [5, 14]
70: Plant response rating, Crabgrass, Large [3, 12] | Plant response rating, Velvetleaf [6, 14]

O=C1CCCC(O)=C1C(=O)c1cnc(-c2ccco2)n(-c2ccccc2)c1=O [Compound 76]
100: Plant response rating, Crabgrass, Large [3, 14] | Plant response rating, Pigweed [5, 12] | Plant response rating, Pigweed [5, 14] | Plant response rating, Velvetleaf [6, 11] | Plant response rating, Velvetleaf [6, 12]
30: Plant response rating, Barnyardgrass [1, 14] | Plant response rating, Foxtail, Giant [2, 14]
20: Plant response rating, Corn (corn (Zea mays); [12]) | Plant response rating, Velvetleaf [6, 13] | Plant response rating, Wheat [7, 14]
90: Plant response rating, Crabgrass, Large [3, 12] | Plant response rating, Morningglory [4, 11] | Plant response rating, Morningglory [4, 12] | Plant response rating, Pigweed [5, 11]
50: Plant response rating, Barnyardgrass [1, 11] | Plant response rating, Crabgrass, Large [3, 13] | Plant response rating, Morningglory [4, 14] | Plant response rating, Pigweed [5, 13]
70: Plant response rating, Foxtail, Giant [2, 12] | Plant response rating, Crabgrass, Large [3, 11] | Plant response rating, Velvetleaf [6, 14]
80: Plant response rating, Barnyardgrass [1, 12]
10: Plant response rating, Wheat [7, 12]
0: Plant response rating, Barnyardgrass [1, 13] | Plant response rating, Corn (corn (Zea mays); [11]) | Plant response rating, Corn (corn (Zea mays); [13]) | Plant response rating, Corn (corn (Zea mays); [14]) | Plant response rating, Foxtail, Giant [2, 13] | Plant response rating, Morningglory [4, 13] | Plant response rating, Wheat [7, 11] | Plant response rating, Wheat [7, 13] | Plant response rating, Flood, Barnyardgrass [8] | Plant response rating, Barnyardgrass [8, 15] | Plant response rating, Barnyardgrass [8, 16] | Barnyardgrass plant response rating [8] | Plant response rating, Flood, Ducksalad [9] | Plant response rating, Ducksalad [9, 15] | Plant response rating, Ducksalad [9, 16] | Ducksalad plant response rating [9] | Plant response rating, Flood, Rice (rice (Oryza sativa)) | Plant response rating, Rice (rice (Oryza sativa); [15]) | Plant response rating, Rice (rice (Oryza sativa); [16]) | Rice plant response rating (rice (Oryza sativa)) | Plant response rating, Flood, Sedge, Umbrella [10] | Plant response rating, Sedge, Umbrella [10, 15] | Plant response rating, Sedge, Umbrella [10, 16] | Sedge, Umbrella plant response rating [10]
40: Plant response rating, Foxtail, Giant [2, 11]

COc1ccc(-n2c(-c3ccccc3)ncc(C(=O)C3=C(O)CCCC3=O)c2=O)c(OC)c1 [Compound 256]
20: Plant response rating, Foxtail, Giant [2, 20] | Plant response rating, Velvetleaf [6, 18]
50: Plant response rating, Morningglory [4, 19]
70: Plant response rating, Barnyardgrass [1, 19] | Foxtail, Giant plant response rating [2, 17]
80: Crabgrass, Large plant response rating [3, 17] | Plant response rating, Crabgrass, Large [3, 19] | Morningglory plant response rating [4, 17] | Plant response rating, Velvetleaf [6, 19] | Plant response rating, Ducksalad [9, 16]
30: Plant response rating, Foxtail, Giant [2, 19] | Plant response rating, Crabgrass, Large [3, 11] | Plant response rating, Morningglory [4, 20] | Ducksalad plant response rating [9] | Sedge, Umbrella plant response rating [10]
0: Plant response rating, Barnyardgrass [1, 18] | Plant response rating, Corn (corn (Zea mays); [11]) | Plant response rating, Corn (corn (Zea mays); [18]) | Plant response rating, Corn (corn (Zea mays); [19]) | Plant response rating, Foxtail, Giant [2, 18] | Plant response rating, Morningglory [4, 18] | Plant response rating, Pigweed [5, 18] | Plant response rating, Wheat [7, 20] | Wheat plant response rating [7, 17] | Plant response rating, Wheat [7, 18] | Plant response rating, Wheat [7, 19] | Plant response rating, Flood, Barnyardgrass [8] | Plant response rating, Barnyardgrass [8, 15] | Plant response rating, Barnyardgrass [8, 16] | Barnyardgrass plant response rating [8] | Plant response rating, Flood, Rice (rice (Oryza sativa)) | Plant response rating, Rice (rice (Oryza sativa); [15]) | Plant response rating, Rice (rice (Oryza sativa); [16]) | Rice plant response rating (rice (Oryza sativa))
75: Plant response rating, Flood, Sedge, Umbrella [10] | Plant response rating, Sedge, Umbrella [10, 16]
85: Plant response rating, Flood, Ducksalad [9]
10: Corn plant response rating (corn (Zea mays); [17]) | Plant response rating, Crabgrass, Large [3, 18]
100: Pigweed plant response rating [5, 17] | Plant response rating, Velvetleaf [6, 20] | Velvetleaf plant response rating [6, 17]
40: Plant response rating, Barnyardgrass [1, 11] | Plant response rating, Ducksalad [9, 15] | Plant response rating, Sedge, Umbrella [10, 15]
90: Barnyardgrass plant response rating [1, 17] | Plant response rating, Pigweed [5, 20] | Plant response rating, Pigweed [5, 19]
